Results reported in ChEMBL document CHEMBL3045342, “Quantitative relationship between insecticidal activity and Ca2+ pump stimulation by flubendiamide and its related compounds” (J Pestic Sci, 2009).
≈ marks a conversion by molar mass, not a printed value. Calls of active or inactive are those of the source. No cut-off for these calls is given here.

Legend:
[1] = test system: Spodoptera litura; assay: Insecticidal activity against Spodoptera litura cabbage leaf disk after 4 to 7 days by leaf dipping method; type: functional; details: foliar
[2] = biological target: Ryanodien receptor (Spodoptera exigua) (UniProt H9CNL0); assay: Activation of ryanodine receptor in sixth-instar larvae of Spodoptera litura muscle membrane assessed as induction of Ca2+ pump at 0.1 uM after 30 min in presence of ryanodine
[3] = biological target: Ryanodien receptor (Spodoptera exigua) (UniProt H9CNL0); assay: Activation of ryanodine receptor in sixth-instar larvae of Spodoptera litura muscle membrane assessed as induction of Ca2+ pump at 1 to 100 uM after 30 min
[4] = biological target: Ryanodien receptor (Spodoptera exigua) (UniProt H9CNL0); assay: Activation of ryanodine receptor in sixth-instar larvae of Spodoptera litura muscle membrane assessed as induction of Ca2+ pump at 2 uM after 30 min relative to control
[5] = biological target: Ryanodien receptor (Spodoptera exigua) (UniProt H9CNL0); assay: Activation of ryanodine receptor in sixth-instar larvae of Spodoptera litura muscle membrane assessed as induction of Ca2+ pump at 0.4 uM after 30 min relative to control
[6] = biological target: Ryanodien receptor (Spodoptera exigua) (UniProt H9CNL0); assay: Activation of ryanodine receptor in sixth-instar larvae of Spodoptera litura muscle membrane assessed as induction of Ca2+ pump at 10 uM after 30 min relative to control
[7] = biological target: Ryanodien receptor (Spodoptera exigua) (UniProt H9CNL0); assay: Activation of ryanodine receptor in sixth-instar larvae of Spodoptera litura muscle membrane assessed as induction of Ca2+ pump at 1 uM after 30 min relative to control
[8] = biological target: Ryanodien receptor (Spodoptera exigua) (UniProt H9CNL0); assay: Activation of ryanodine receptor in sixth-instar larvae of Spodoptera litura muscle membrane assessed as induction of Ca2+ pump at 0.1 uM after 30 min relative to control

Cc1cc(OC(F)(F)F)ccc1NC(=O)c1cccc(I)c1C(=O)NC(C)C
LC50 [1]: 1 µg/mL (≈ 1.98 µM)

Cc1cc(Cl)ccc1NC(=O)c1cccc(Br)c1C(=O)NC(C)C
LC50 [1]: 10 µg/mL (≈ 24.4 µM)

Cc1cc(C(F)(C(F)(F)F)C(F)(F)F)ccc1NC(=O)c1cccc(I)c1C(=O)NC(C)C
LC50 [1]: 0.1 µg/mL (≈ 0.169 µM)

Cc1cc(C(F)(C(F)(F)F)C(F)(F)F)ccc1NC(=O)c1cccc(I)c1C(=O)NC(C)(C)CS(C)(=O)=O [FLUBENDIAMIDE]
LC50 [1]: 0.03 µg/mL (≈ 0.044 µM)
Activity [2]: inactive

CSCC(C)(C)NC(=O)c1c(I)cccc1C(=O)Nc1ccc(C(F)(C(F)(F)F)C(F)(F)F)cc1C
LC50 [1]: 0.03 µg/mL (≈ 0.0461 µM)

Cc1cc(C(F)(F)C(F)(F)F)ccc1NC(=O)c1cccc(I)c1C(=O)NC(C)C
LC50 [1]: 0.3 µg/mL (≈ 0.555 µM)

CC(C)[C@@]1(O)[C@@H](OC(=O)c2cc[nH]c2)[C@@]2(O)[C@]3(C)C[C@@]4(O)O[C@@]5([C@H](O)[C@@H](C)CC[C@]35O)[C@@]2(O)[C@@]41C
Activity [3]: Active

Cc1cc(OC(F)F)ccc1NC(=O)c1cccc(I)c1C(=O)NC(C)C
LC50 [1]: 1 µg/mL (≈ 2.05 µM)

Cc1cc(Cl)ccc1NC(=O)c1ccccc1C(=O)NC(C)C
LC50 [1]: 10 µg/mL (≈ 30.2 µM)

CNc1ccc2oc(C[C@H]3O[C@@]4(CC[C@H]3C)O[C@H]([C@H](C)C(=O)c3ccc[nH]3)[C@H](C)C[C@H]4C)nc2c1C(=O)O
Activity [4]: 358%
Activity [5]: 158%

C/C=C(/C)C(=O)O[C@H]1C(C)=C2[C@H]([C@@H]1OC(=O)CCCCCCC)[C@@](C)(OC(C)=O)C[C@H](OC(=O)CCC)[C@@]1(O)[C@H]2OC(=O)[C@@]1(C)O
Activity [6]: 31%
Activity [7]: 31.7%
Activity [8]: 67.8%

CSCC(C)(C)NC(=O)c1c(C(=O)Nc2ccc(C(F)(C(F)(F)F)C(F)(F)F)cc2C)cc(Cl)c(Cl)c1I
LC50 [1]: > 10 µg/mL
